CC50 and EC50 data for twelve compounds are collected here from patent US20240343754A1, “7-SUBSTITUTED 7-DEAZAADENINE-CONTAINING 2',3'-CYCLIC DINUCLEOTIDES” (USTAV ORGANICKE CHEMIE A BIOCHEMIE AV CR, V. V. I., priority 2021, published 2024).

A short description of data set [1]: Cytotoxic effect on PBMCs (CellTiter-Glo Luminescent Cell Viability Assay). The conditions noted are these: human, 16 h incubation, mean from three different PBMC donors. Type of data set: cell-based. The protocol:
Briefly, buffy coats were obtained from the Institute of Hematology and Blood Transfusion (Prague, Czech Republic). Informed written consent was signed by each volunteer. Isolation of PBMCs was performed on Ficoll density gradient centrifugation (Ficoll Paque Plus, GE Healthcare, USA) in SepMate tubes (SepMate PBMC Isolation Tubes, Stemcell Technologies, Canada). Obtained PBMCs were washed using PBS with 2 mM EDTA, and then seeded onto 96-well U-shape plates at density 500,000 cells per well in RPMI 1640 media with 10% (v/v) heat inactivated FBS. Serially diluted CDNs were added to cells and cells were incubated for 16 h (37° C., 5% CO2). After incubation, medium was collected to determine levels of INFα and INFγ using ProcartaPlex Assays and MAGPIX System (Merck, Germany) according to the manufacturer's instructions. Cytotoxic effect of CDNs on PBMCs was determined using CellTiter-Glo® Luminescent Cell Viability Assay (Promega Corporation, USA) according to manufacturer's instruction.

For data set [2], the system named is Peripheral blood mononuclear cells (PBMC). In words: PBMC assay: induction of cytokines INFα and INFγ. The data set is classed as cell-based. The conditions noted are these: Homo sapiens, PBMCs, 16 h incubation, mean from three different PBMC donors.
A further data set addresses wt hSTING (Homo sapiens, UniProt Q86WV6). Briefly: Standard 293T reporter cell-based assay (IRF-3 dependent firefly luciferase reporter).
The mark [3] stands for this setting: read-out: PBMC assay EC50 INF α.
Setting [4] is: read-out: PBMC assay EC50 INF γ.
The mark [5] stands for this setting: read-out: Standard assay EC50, 293T reporter cells expressing wt hSTING, 7 h incubation, mean of three independent experiments in triplicates, SD <50%.

The structures appear in SMILES notation. Like-named read-outs stand apart in the source and are kept apart here.

Sequence of wt hSTING (Q86WV6 whole entry H232R): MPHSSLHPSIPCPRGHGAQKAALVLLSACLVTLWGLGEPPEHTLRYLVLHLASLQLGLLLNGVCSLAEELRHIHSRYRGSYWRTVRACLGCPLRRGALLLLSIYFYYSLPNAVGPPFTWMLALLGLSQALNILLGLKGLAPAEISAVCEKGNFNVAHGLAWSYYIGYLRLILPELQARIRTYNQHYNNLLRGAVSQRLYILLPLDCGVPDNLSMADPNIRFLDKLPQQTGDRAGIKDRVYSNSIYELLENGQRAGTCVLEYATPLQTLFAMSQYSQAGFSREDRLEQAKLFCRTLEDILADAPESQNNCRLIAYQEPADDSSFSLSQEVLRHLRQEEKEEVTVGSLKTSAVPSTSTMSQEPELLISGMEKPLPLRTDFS
Experimental for wt hSTING: Briefly, the day before testing cells were seeded onto 96-well white plates at density 250,000 cells per cm^2 in DMEM High glucose medium supplemented with 10% (v/v) heat inactivated fetal bovine albumin (FBS). The next day medium was removed, and cell were incubated for 7 h (37° C., 5% CO2) with serial dilution of compounds in medium. After incubation, Bright-Glo Luciferase Assay System reagent was added to cells and luminescence readout was performed on SPARK instrument (Tecan, Austria). EC50 values were determined using in software Prism (GraphPad, USA).

Consider `Cc1cn([C@@H]2O[C@@H]3COP(=O)(O)O[C@@H]4[C@H](O)[C@@H](COP(=O)(O)O[C@H]3[C@H]2O)O[C@H]4n2cnc3c(=O)[nH]c(N)nc32)c2ncnc(N)c12` [Compound 1a, 2-amino-9-((5R,7R,8R,12aR,14R,15R,15aS,16R)-14-(4-amino-5-methyl-7H-pyrrolo[2,3-d]pyrimidin-7-yl)-2,10,15,16-tetrahydroxy-2,10-dioxidooctahydro-12H-5,8-methanofuro[3,2-l][1,3,6,9,11]pentaoxa[2,10]diphosphacyclotetradecin-7-yl)-1,9-dihydro-6H-purin-6-one], for which, in data set [1], the CC50 at 16 h was over 200 µM. In addition, the figures for the EC50 in data set [2] (setting [3]) and in data set [2] (setting [4]) were 30.6 µM and 7.8 µM, respectively.

Consider `Nc1nc2c(ncn2[C@@H]2O[C@@H]3COP(=O)(O)O[C@H]4[C@@H](O)[C@H](n5cc(-c6ccccc6)c6c(N)ncnc65)O[C@@H]4COP(=O)(O)O[C@@H]2[C@@H]3O)c(=O)[nH]1` [Compound 1b, 2-amino-9-((5R,7R,8R,12aR,14R,15R,15aS,16R)-14-(4-amino-5-phenyl-7H-pyrrolo[2,3-d]pyrimidin-7-yl)-2,10,15,16-tetrahydroxy-2,10-dioxidooctahydro-12H-5,8-methanofuro[3,2-l][1,3,6,9,11]pentaoxa[2,10]diphosphacyclotetradecin-7-yl)-1,9-dihydro-6H-purin-6-one], for which the CC50 at 16 h in data set [1] is over 200 µM. Besides, on wt hSTING (setting [5]), the EC50 was 40.7 µM.

As for `Nc1nc2c(ncn2[C@@H]2O[C@@H]3COP(=O)(O)O[C@H]4[C@@H](O)[C@H](n5cc(-c6ccc7ccccc7c6)c6c(N)ncnc65)O[C@@H]4COP(=O)(O)O[C@@H]2[C@@H]3O)c(=O)[nH]1` [Compound 1c, 2-amino-9-((5R,7R,8R,12aR,14R,15R,15aS,16R)-14-(4-amino-5-(naphthalen-2-yl)-7H-pyrrolo[2,3-d]pyrimidin-7-yl)-2,10,15,16-tetrahydroxy-2,10-dioxidooctahydro-12H-5,8-methanofuro[3,2-l][1,3,6,9,11]pentaoxa[2,10]diphosphacyclotetradecin-7-yl)-1,9-dihydro-6H-purin-6-one], the CC50 at 16 h in data set [1] was over 200 µM. Moreover, the EC50 at wt hSTING (setting [5]) turned out to be 7.63 µM.

In turn, `Nc1nc2c(ncn2[C@@H]2O[C@@H]3COP(=O)(O)O[C@H]4[C@@H](O)[C@H](n5cc(-c6cccc7ccccc67)c6c(N)ncnc65)O[C@@H]4COP(=O)(O)O[C@@H]2[C@@H]3O)c(=O)[nH]1` [Compound 1d, 2-amino-9-((5R,7R,8R,12aR,14R,15R,15aS,16R)-14-(4-amino-5-(naphthalen-1-yl)-7H-pyrrolo[2,3-d]pyrimidin-7-yl)-2,10,15,16-tetrahydroxy-2,10-dioxidooctahydro-12H-5,8-methanofuro[3,2-l][1,3,6,9,11]pentaoxa[2,10]diphosphacyclotetradecin-7-yl)-1,9-dihydro-6H-purin-6-one] gave a cytotoxic concentration (CC50) at 16 h in data set [1] of over 200 µM. Further, the EC50 on wt hSTING (setting [5]) was found to be 42.5 µM.

In data set [1], `Nc1nc2c(ncn2[C@@H]2O[C@@H]3COP(=O)(O)O[C@H]4[C@@H](O)[C@H](n5cc(-c6cc7ccccc7c7ccccc67)c6c(N)ncnc65)O[C@@H]4COP(=O)(O)O[C@@H]2[C@@H]3O)c(=O)[nH]1` [Compound 1e, 2-amino-9-((5R,7R,8R,12aR,14R,15R,15aS,16R)-14-(4-amino-5-(phenanthren-9-yl)-7H-pyrrolo[2,3-d]pyrimidin-7-yl)-2,10,15,16-tetrahydroxy-2,10-dioxidooctahydro-12H-5,8-methanofuro[3,2-l][1,3,6,9,11]pentaoxa[2,10]diphosphacyclotetradecin-7-yl)-1,9-dihydro-6H-purin-6-one] registered a CC50 at 16 h of over 200 µM. Also, the 50% effective concentration (EC50) at wt hSTING (setting [5]) was determined as 65.5 µM.

In data set [1], `Nc1nc2c(ncn2[C@@H]2O[C@@H]3COP(=O)(O)O[C@H]4[C@@H](O)[C@H](n5cc(-c6ccc(-c7ccccc7)cc6)c6c(N)ncnc65)O[C@@H]4COP(=O)(O)O[C@@H]2[C@@H]3O)c(=O)[nH]1` [Compound 1f, 9-((5R,7R,8R,12aR,14R,15R,15aS,16R)-14-(5-([1,1′-biphenyl]-4-yl)-4-amino-7H-pyrrolo[2,3-d]pyrimidin-7-yl)-2,10,15,16-tetrahydroxy-2,10-dioxidooctahydro-12H-5,8-methanofuro[3,2-l][1,3,6,9,11]pentaoxa[2,10]diphosphacyclotetradecin-7-yl)-2-amino-1,9-dihydro-6H-purin-6-one] yielded a CC50 at 16 h of over 200 µM. The EC50 on wt hSTING (setting [5]) was found to be 2.95 µM; in data set [2] (setting [3]), 7.4 µM; in data set [2] (setting [4]), 2 µM.

The compound `Nc1nc2c(ncn2[C@@H]2O[C@@H]3COP(=O)(O)O[C@H]4[C@@H](O)[C@H](n5cc(-c6ccc(-c7ccc8ccccc8c7)cc6)c6c(N)ncnc65)O[C@@H]4COP(=O)(O)O[C@@H]2[C@@H]3O)c(=O)[nH]1` [Compound 1g, 2-amino-9-((5R,7R,8R,12aR,14R,15R,15aS,16R)-14-(4-amino-5-(4-(naphthalen-2-yl)phenyl)-7H-pyrrolo[2,3-d]pyrimidin-7-yl)-2,10,15,16-tetrahydroxy-2,10-dioxidooctahydro-12H-5,8-methanofuro[3,2-l][1,3,6,9,11]pentaoxa[2,10]diphosphacyclotetradecin-7-yl)-1,9-dihydro-6H-purin-6-one] came in with a CC50 at 16 h in data set [1] of over 200 µM. Also, the EC50 turned out to be 3.06 µM at wt hSTING (setting [5]), 5.1 µM in data set [2] (setting [3]) and 1.8 µM in data set [2] (setting [4]).

`Nc1nc2c(ncn2[C@@H]2O[C@@H]3COP(=O)(O)O[C@H]4[C@@H](O)[C@H](n5cc(-c6ccco6)c6c(N)ncnc65)O[C@@H]4COP(=O)(O)O[C@@H]2[C@@H]3O)c(=O)[nH]1` [Compound 1i, 2-amino-9-((5R,7R,8R,12aR,14R,15R,15aS,16R)-14-(4-amino-5-(furan-2-yl)-7H-pyrrolo[2,3-d]pyrimidin-7-yl)-2,10,15,16-tetrahydroxy-2,10-dioxidooctahydro-12H-5,8-methanofuro[3,2-l][1,3,6,9,11]pentaoxa[2,10]diphosphacyclotetradecin-7-yl)-1,9-dihydro-6H-purin-6-one] returned a cytotoxic concentration (CC50) at 16 h in data set [1] of over 200 µM. The EC50 is 2.8 µM in data set [2] (setting [3]) and 2.24 µM in data set [2] (setting [4]).

Take `Nc1nc2c(ncn2[C@@H]2O[C@@H]3COP(=O)(O)O[C@H]4[C@@H](O)[C@H](n5cc(-c6cccs6)c6c(N)ncnc65)O[C@@H]4COP(=O)(O)O[C@@H]2[C@@H]3O)c(=O)[nH]1` [Compound 1j, 2-amino-9-((5R,7R,8R,12aR,14R,15R,15aS,16R)-14-(4-amino-5-(thiophen-2-yl)-7H-pyrrolo[2,3-d]pyrimidin-7-yl)-2,10,15,16-tetrahydroxy-2,10-dioxidooctahydro-12H-5,8-methanofuro[3,2-l][1,3,6,9,11]pentaoxa[2,10]diphosphacyclotetradecin-7-yl)-1,9-dihydro-6H-purin-6-one]: the CC50 at 16 h in data set [1] was over 200 µM. Moreover, the EC50 in data set [2] (setting [3]) stood at 2.88 µM; in data set [2] (setting [4]), 2.6 µM.

For `Nc1nc2c(ncn2[C@@H]2O[C@@H]3COP(=O)(O)O[C@H]4[C@@H](O)[C@H](n5cc(-c6cccc7c6oc6ccccc67)c6c(N)ncnc65)O[C@@H]4COP(=O)(O)O[C@@H]2[C@@H]3O)c(=O)[nH]1` [Compound 1m, 2-amino-9-((5R,7R,8R,12aR,14R,15R,15aS,16R)-14-(4-amino-5-(dibenzo[b,d]furan-4-yl)-7H-pyrrolo[2,3-d]pyrimidin-7-yl)-2,10,15,16-tetrahydroxy-2,10-dioxidooctahydro-12H-5,8-methanofuro[3,2-l][1,3,6,9,11]pentaoxa[2,10]diphosphacyclotetradecin-7-yl)-1,9-dihydro-6H-purin-6-one], the CC50 at 16 h in data set [1] is over 200 µM. In addition, on wt hSTING (setting [5]), the EC50 is 19.1 µM.

Compound `Nc1nc2c(ncn2[C@@H]2O[C@@H]3COP(=O)(O)O[C@H]4[C@@H](O)[C@H](n5ccc6c(N)ncnc65)O[C@@H]4COP(=O)(O)O[C@@H]2[C@@H]3O)c(=O)[nH]1` [Compound 1n, 2-amino-9-((5R,7R,8R,12aR,14R,15R,15aS,16R)-14-(4-amino-7H-pyrrolo[2,3-d]pyrimidin-7-yl)-2,10,15,16-tetrahydroxy-2,10-dioxidooctahydro-12H-5,8-methanofuro[3,2-l][1,3,6,9,11]pentaoxa[2,10]diphosphacyclotetradecin-7-yl)-1,9-dihydro-6H-urin-6-one, reference compound] gave a CC50 at 16 h in data set [1] of over 200 µM. In addition, the EC50 in data set [2] (setting [3]) amounted to 54.5 µM; in data set [2] (setting [4]) it was 67.6 µM.

For `C#Cc1cn([C@@H]2O[C@@H]3COP(=O)(O)O[C@@H]4[C@H](O)[C@@H](OCP(=O)(O)O[C@H]3[C@H]2O)O[C@H]4n2cnc3c(=O)[nH]c(N)nc32)c2ncnc(N)c12` [Compound 53, 2-amino-9-((5R,7R,8R,12aR,14R,15R,15aS,16S)-14-(4-amino-5-ethynyl-7H-pyrrolo[2,3-d]pyrimidin-7-yl)-2,10,15,16-tetrahydroxy-2,10-dioxidooctahydro-5,8-methanofuro[3,2-l][1,3,6,8,11]pentaoxa[2,10]diphosphacyclotetradecin-7-yl)-1,9-dihydro-6H-purin-6-one, reference compound], a half-maximal effect on wt hSTING (EC50) was put at 109 µM.
